Test [1] has as its target S. cerevisiae Pma1 (Saccharomyces cerevisiae, UniProt P05030). In words: ATP hydrolysis assay, S. cerevisiae plasma membranes containing Pma1. The test is classed as biochemical. On the set-up: containing the full-length cDNA of the S. cerevisiae plasma membrane H^+-ATPase isoform PMA1; made in house; host or cells: S. cerevisiae RS72 (PMA1 cDNA under PMA1 promoter); also wild-type S. cerevisiae ATCC 9763. Here is the method:
Plasma membranes containing Pma1 were isolated from S. cerevisiae RS72 cells containing the full-length cDNA of the S. cerevisiae plasma membrane H^+-ATPase isoform PMA1 under the control of the PMA1 promoter, as described in reference.
A 100-ml overnight culture in YPD medium [10 g/liter yeast extract (BD, Sparks, MD), 20 g/liter Bacto peptone (BD), 20 g/liter D-(+)-glucose] was transferred to 1 liter YPD medium and grown at room temperature and 150 rpm for 18 h for wild-type S. cerevisiae (ATCC 9763) and 7 h for C. albicans. The cells were harvested and washed in Milli-Q H2O by centrifugation at 3,360 × g. The cells were glucose activated by the addition of 10% D-(+)-glucose for 10 min while shaking. The cells were then centrifuged at 3,360 × g for 3 min and frozen. Cells (60 to 80 g, wet weight) were then disrupted by bead beating (BioSpec, Bartlesville, OK) and processed as described in reference to prepare the plasma membranes. […] All batches were validated by ATPase hydrolysis activity, pH optimum, and orthovanadate sensitivity.
The protein activity levels were determined by measuring the amount of free phosphate produced from the ATP hydrolysis reaction. The assay was performed as described in reference. Each well contained ATPase enzyme, 2 μl of inhibitor (usually in the range of 333 to 0.01 μM) dissolved in dimethyl sulfoxide (DMSO) (Duchefa Biochemie, Haarlem, The Netherlands), and an assay buffer dependent on the enzyme for a final volume of 60 μl. Possible compound precipitation in the assay buffer was monitored using a Nephelostar plate reader measuring turbidity, and the information was taken into account in the IC50 determination. Pma1 assay buffer consisted of 20 mM 3-(N-morpholino)propanesulfonic acid (MOPS)–NaOH, pH 6.5 or 7.0, 8 mM MgSO4, 50 mM KNO3 (a vacuolar ATPase inhibitor), 25 mM sodium azide (a mitochondrial ATPase inhibitor), and 250 μM sodium molybdate (an acid phosphatase inhibitor). SERCA buffer consisted of 9 mM MOPS-NaOH, pH 7, 2.7 mM MgCl2, 90 μM CaCl2, and 72 mM KCl. Na^+,K^+-ATPase buffer consisted of 30 mM MOPS-NaOH, pH 7, 40 mM NaCl, 4 mM MgCl2, and 20 mM KCl. The concentration of protein was adjusted to obtain a signal of the optical density at 860 nm (OD860) of between 0.5 and 1.0 in the untreated samples (for all Pma1 batches, ∼1 to 2 μg/well; for SERCA and Na^+,K^+-ATPase, ∼0.1 to 0.2 μg/well). […]

Test [2] relates to Aspergillus fumigatus ATCC 13073. Nature of the test: microbe, parasite or virus in culture. The note with it: Aspergillus fumigatus. Here is the method:
(§1) The following fungal isolates were used: Saccharomyces cerevisiae ATCC 9763, Candida albicans SC5314, Candida parapsilosis ATCC 22019, Candida tropicalis Ct016, Candida glabrata ATCC 90030, Aspergillus fumigatus ATCC 13073, and Aspergillus flavus ATCC MYA-1005. Frozen stocks of yeast isolates in glycerol (final concentration, 20%) were prepared by growing the cells to log phase in YPD medium at 30°C and 150 rpm. Frozen stocks of mold spores were prepared by harvesting spores from 7-day-old potato glucose agar plates in phosphate-buffered saline, 0.1% Tween 80 and aliquoting these spores in the presence of glycerol (final concentration, 20%). The cells were stored at −80°C. The cells or spores were thawed and diluted to a final concentration of 0.5 × 10^5 to 2.5 × 10^5 CFU/ml in sterile Milli-Q H2O. […] The plate was incubated for 20 to 24 h at 34°C (72 h for molds), and the OD490 was measured on a Victor X5 (PerkinElmer) plate reader. Mold growth assay plates were also visually inspected. The MIC was defined as the lowest concentration inhibiting the visual growth of the microorganism.

Test [3] relates to Candida parapsilosis ATCC 22019. Nature of the test: microbe, parasite or virus in culture. The note with it: Lodderomyces parapsilosis. Here is the method:
as §1

The test system of test [4] is Candida albicans SC5314. Nature of the test: microbe, parasite or virus in culture. The note with it: Candida albicans. Here is the method:
as §1

The subject of test [5] is Candida glabrata ATCC 90030. In words: microbe, parasite or virus in culture. The note with it: Nakaseomyces glabratus. The procedure:
as §1

Test [6] has as its system Candida tropicalis Ct016. Nature of the test: microbe, parasite or virus in culture. The note with it: Candida tropicalis. The procedure: as §1
The mark [7] stands for this setting: Table 2, pH 7, n = 2, read-out: IC50 for ATP hydrolysis, S. cerevisiae Pma1.
Setting [8] is: ATCC13073, read-out: MIC for growth inhibition, A. fumigatus.
Where [9] appears, read: ATCC22019, read-out: MIC for growth inhibition, C. parapsilosis.
Setting [10] is: SC5314, read-out: Growth inhibition MIC, C. albicans in RPMI.
The mark [11] stands for this setting: SC5314, read-out: MIC for growth inhibition, C. albicans.
[12] abbreviates: ATCC90030, read-out: MIC for growth inhibition, C. glabrata.
The mark [13] stands for this setting: CT016, read-out: MIC for growth inhibition, C. tropicalis.

≈ marks a conversion by molar mass, not a printed value. Read-outs that look alike come from different tables or passages of the source. Where only a bound is given, the exact number is not on record here.

One may read the IC50 as the concentration that inhibits the measured activity by half.

S. cerevisiae Pma1, sequence (P05030 whole entry, canonical isoform): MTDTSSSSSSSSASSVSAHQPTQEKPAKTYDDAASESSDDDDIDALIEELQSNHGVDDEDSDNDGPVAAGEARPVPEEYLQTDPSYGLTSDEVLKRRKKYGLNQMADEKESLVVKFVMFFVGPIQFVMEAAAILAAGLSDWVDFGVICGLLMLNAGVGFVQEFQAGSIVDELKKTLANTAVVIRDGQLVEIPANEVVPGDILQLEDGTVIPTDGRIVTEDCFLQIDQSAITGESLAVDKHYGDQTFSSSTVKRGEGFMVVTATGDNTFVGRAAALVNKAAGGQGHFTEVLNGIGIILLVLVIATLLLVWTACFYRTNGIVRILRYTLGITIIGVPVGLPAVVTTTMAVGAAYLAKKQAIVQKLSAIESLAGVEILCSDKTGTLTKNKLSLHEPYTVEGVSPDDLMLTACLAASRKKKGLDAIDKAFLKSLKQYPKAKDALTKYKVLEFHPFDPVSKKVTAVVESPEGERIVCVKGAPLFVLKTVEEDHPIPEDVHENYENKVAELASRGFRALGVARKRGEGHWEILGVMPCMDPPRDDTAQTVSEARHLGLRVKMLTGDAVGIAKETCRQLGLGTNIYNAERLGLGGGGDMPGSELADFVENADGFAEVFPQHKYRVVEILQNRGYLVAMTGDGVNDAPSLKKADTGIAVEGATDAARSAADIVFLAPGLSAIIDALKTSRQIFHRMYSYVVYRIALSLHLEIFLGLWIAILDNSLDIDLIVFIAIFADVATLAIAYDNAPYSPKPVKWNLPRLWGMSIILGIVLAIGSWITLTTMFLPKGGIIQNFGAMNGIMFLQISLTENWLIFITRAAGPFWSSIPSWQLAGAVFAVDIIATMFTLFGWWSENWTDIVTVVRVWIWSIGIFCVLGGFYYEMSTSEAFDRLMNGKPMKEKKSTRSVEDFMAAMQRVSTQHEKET

For the compound `CCc1nc2sc3c(NCCCN(C)C)ncnc3c2c2c1CCCC2` [Compound 17], the 50% inhibitory concentration (IC50) was 107 µM in test [1] (ATP hydrolysis, S. cerevisiae Pma1, read-out: IC50 for Pma1) and 107 ± 18.2 µM in test [1] (setting [7]). The MIC in test [2] (setting [8]) was above 150 µM; in test [3] (setting [9]), 150 µM (≈ 55.4 µg/mL); in test [4] (setting [10]), 150 µM (≈ 55.4 µg/mL); in test [4] (setting [11]) it was 150 µM (≈ 55.4 µg/mL); in test [5] (setting [12]), 150 µM (≈ 55.4 µg/mL); in test [6] (setting [13]), 150 µM (≈ 55.4 µg/mL).

`CCCCc1nc2sc3c(NCCCN(C)C)ncnc3c2c2c1CCCC2` [Compound 14]: the IC50 was found to be 13.7 ± 2 µM in test [1] (Table 1, ATP hydrolysis at pH 7, 2 to 3 experiments, read-out: IC50 Pma1) and 13.7 ± 2 µM in test [1] (setting [7]). Further, in test [1] (from IC50 of Table 2), the “Selectivity for Pma1 over SERCA” value worked out at 3 fold. In addition, the MIC in test [2] (ATCC13073, 72 h, pH 7, read-out: MIC A. fumigatus) was found to be 75 µM (≈ 29.8 µg/mL); in test [2] (setting [8]) it was 75 µM (≈ 29.8 µg/mL); in test [3] (ATCC22019, pH 7, read-out: MIC C. parapsilosis), 24 µM (≈ 9.54 µg/mL); in test [3] (setting [9]), 24 µM (≈ 9.54 µg/mL); in test [4] (SC5314, pH 7, read-out: MIC C. albicans) it was 36 µM (≈ 14.3 µg/mL); in test [4] (setting [10]), 36 µM (≈ 14.3 µg/mL). Besides, the MIC in test [4] (setting [11]) was determined as 36 µM (≈ 14.3 µg/mL); in test [5] (ATCC90030, pH 7, read-out: MIC C. glabrata), 41 µM (≈ 16.3 µg/mL); in test [5] (setting [12]) it was 41 µM (≈ 16.3 µg/mL); in test [6] (CT016, pH 7, read-out: MIC C. tropicalis), 24 µM (≈ 9.54 µg/mL); in test [6] (setting [13]) it was 24 µM (≈ 9.54 µg/mL).

On to `CN(C)CCCNc1ncnc2c1sc1nc(-c3ccccc3)c3c(c12)CCC3` [Compound 18], for which the half-maximal inhibitory concentration (IC50) in test [1] (setting [7]) amounted to 18.5 ± 4.3 µM. Besides, the “Selectivity for Pma1 over Na^+,K^+-ATPase” value in test [1] (from IC50 of Table 2) is 4 fold. In addition, the “Selectivity for Pma1 over SERCA” value in test [1] (from IC50 of Table 2) is reported as 3 fold. The MIC in test [2] (setting [8]) is 75 µM (≈ 30.3 µg/mL); in test [3] (setting [9]), 24 µM (≈ 9.69 µg/mL); in test [4] (setting [10]) it was 75 µM (≈ 30.3 µg/mL); in test [4] (setting [11]), 75 µM (≈ 30.3 µg/mL); in test [5] (setting [12]), 41 µM (≈ 16.5 µg/mL); in test [6] (setting [13]), 58 µM (≈ 23.4 µg/mL).

Source of the values: publication PMC5487681, “Identification of Antifungal H^+-ATPase Inhibitors with Effect on Plasma Membrane Potential” (Antimicrobial Agents and Chemotherapy, 2017).
